Laboratory results reported in patent US20100076194A1, “SUBSTITUTED 3-AMINO-1-OXO OR THIOXO-1,2,5,6,7,8-HEXAHYDRO-2,7-NAPHTHYRIDINE-4-CARBONITRILES ARE SELECTIVE ALPHA 2B ANTAGONISTS” (ALLERGAN, INC., priority 2008, published 2010).
Read-outs that look alike come from different tables or passages of the source.

Assays:
mouse alpha2B receptor = target: T1, mouse alpha2B receptor (Mus musculus, UniProt P30545); assay: FLIPR Ca+2 influx antagonist assay, alpha 2B; assay type: cell-based; conditions: for % Antagonism Alpha 2B: value in parentheses
T1 construct: expressed in transfected cells; host or cells: HEK 293
T1 sequence (P30545 1-453): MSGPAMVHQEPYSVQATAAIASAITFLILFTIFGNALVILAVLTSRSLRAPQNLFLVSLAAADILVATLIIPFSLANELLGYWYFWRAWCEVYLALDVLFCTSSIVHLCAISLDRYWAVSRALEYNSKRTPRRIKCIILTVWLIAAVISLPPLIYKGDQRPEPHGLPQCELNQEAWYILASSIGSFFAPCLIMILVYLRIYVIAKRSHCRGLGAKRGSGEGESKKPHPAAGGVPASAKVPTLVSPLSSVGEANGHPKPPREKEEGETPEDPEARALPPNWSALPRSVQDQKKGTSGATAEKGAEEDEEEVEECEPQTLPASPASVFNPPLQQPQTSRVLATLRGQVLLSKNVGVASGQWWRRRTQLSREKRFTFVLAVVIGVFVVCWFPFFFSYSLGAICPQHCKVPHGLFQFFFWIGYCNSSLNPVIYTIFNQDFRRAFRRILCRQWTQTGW
Procedure: (§1) HEK 293 cells stably expressing the human alpha 2A receptor and the chimeric G protein Gqi5, the mouse alpha2B receptor and the G protein G16, and the human alpha 2C receptor and the chimeric G protein Gqi5 are plated in poly-D-lysine coated 96-well plates at 50,000-75,000 cells per well and grown overnight in DMEM supplemented with 10% fetal bovine serum. For FLIPR (fluorometric image plate reader) evaluation, cells are washed twice with HBSS/HEPES Buffer (1× Hanks Buffered Salt Solution, 20 mM HEPES, pH 7.4) prior to the addition of Fluo-4-AM (4 uM Fluo-4-AM, 0.04% pluronic acid in HBSS/HEPES Buffer), a calcium-sensitive dye. Cells are loaded with dye for 60 minutes at 37° C., then washed 4 times with HBSS/HEPES Buffer. For both the agonist and antagonist assay, the test compounds are tested between 0.64 nM-10,000 nM.
(§2) However, the antagonist blocks the transient calcium signal of the standard agonist norepinephrine in a dose-dependent manner. The residual norepinephrine peak height is compared to the non-antagonized norepinephrine peak height for the determination of % antagonism.

[1] = target: T2, Alpha 1A adrenergic receptor (Homo sapiens, UniProt P35348); assay: FLIPR Ca+2 influx antagonist assay, alpha 1A; assay type: cell-based; conditions: for % Antagonism Alpha 1A: value in parentheses, vs norepinephrine peak height
T2 sequence (P35348 1-466): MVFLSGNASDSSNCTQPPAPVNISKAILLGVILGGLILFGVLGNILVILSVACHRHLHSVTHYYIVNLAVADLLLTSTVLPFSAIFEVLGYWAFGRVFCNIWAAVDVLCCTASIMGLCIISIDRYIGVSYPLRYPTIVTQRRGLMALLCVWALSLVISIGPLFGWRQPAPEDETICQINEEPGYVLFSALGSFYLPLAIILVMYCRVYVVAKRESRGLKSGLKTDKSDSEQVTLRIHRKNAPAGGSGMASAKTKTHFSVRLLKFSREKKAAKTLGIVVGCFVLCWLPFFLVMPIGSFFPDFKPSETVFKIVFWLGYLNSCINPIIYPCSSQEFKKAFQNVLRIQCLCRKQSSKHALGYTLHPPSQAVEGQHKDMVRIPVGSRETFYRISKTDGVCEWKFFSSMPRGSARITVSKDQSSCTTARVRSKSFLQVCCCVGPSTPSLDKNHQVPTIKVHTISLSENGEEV

[2] = target: T3, Alpha 1B adrenergic receptor (Homo sapiens, UniProt P35368); assay: FLIPR Ca+2 influx antagonist assay, alpha 1B; assay type: cell-based; conditions: for % Antagonism Alpha 1B: value in parentheses, vs norepinephrine peak height
T3 sequence (P35368 1-520): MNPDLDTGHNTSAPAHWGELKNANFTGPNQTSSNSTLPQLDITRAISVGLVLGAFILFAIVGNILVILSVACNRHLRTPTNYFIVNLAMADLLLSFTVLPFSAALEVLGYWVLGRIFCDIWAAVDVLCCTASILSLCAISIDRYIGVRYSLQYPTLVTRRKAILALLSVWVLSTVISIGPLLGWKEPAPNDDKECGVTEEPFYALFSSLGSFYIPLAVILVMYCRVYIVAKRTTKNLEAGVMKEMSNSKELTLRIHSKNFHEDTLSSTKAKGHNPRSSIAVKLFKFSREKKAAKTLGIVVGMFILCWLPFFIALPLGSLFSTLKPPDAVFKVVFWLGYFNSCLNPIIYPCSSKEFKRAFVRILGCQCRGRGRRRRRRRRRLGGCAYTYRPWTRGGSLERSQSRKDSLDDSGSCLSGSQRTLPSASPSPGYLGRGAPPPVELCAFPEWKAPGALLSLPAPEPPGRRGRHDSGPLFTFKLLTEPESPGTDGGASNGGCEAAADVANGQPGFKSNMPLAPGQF

human alpha 2A receptor = target: T4, human alpha 2A receptor (Homo sapiens, UniProt P08913); assay: FLIPR Ca+2 influx antagonist assay, alpha 2A; assay type: cell-based; conditions: HEK 293 cells, Gqi5; for IC50: antagonism of norepinephrine calcium signal; for % Antagonism Alpha 2A: value in parentheses
T4 construct: expressed in transfected cells; host or cells: HEK 293
T4 sequence (P08913 1-465): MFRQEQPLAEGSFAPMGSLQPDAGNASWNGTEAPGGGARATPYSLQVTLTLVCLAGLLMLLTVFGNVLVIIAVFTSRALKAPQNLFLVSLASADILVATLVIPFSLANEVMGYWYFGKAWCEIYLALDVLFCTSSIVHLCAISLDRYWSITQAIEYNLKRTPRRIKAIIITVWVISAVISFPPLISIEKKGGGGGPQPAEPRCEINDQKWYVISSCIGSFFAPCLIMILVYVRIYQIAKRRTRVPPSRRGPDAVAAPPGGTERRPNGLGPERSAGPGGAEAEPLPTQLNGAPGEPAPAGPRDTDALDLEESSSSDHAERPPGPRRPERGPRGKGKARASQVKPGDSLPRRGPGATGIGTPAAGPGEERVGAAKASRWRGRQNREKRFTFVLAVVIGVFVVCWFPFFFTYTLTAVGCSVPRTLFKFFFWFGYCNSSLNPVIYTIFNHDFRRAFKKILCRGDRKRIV
Procedure: as §1, §2

human alpha 2C receptor = target: T5, human alpha 2C receptor (Homo sapiens, UniProt P18825); assay: FLIPR Ca+2 influx antagonist assay, alpha 2C; assay type: cell-based; conditions: HEK 293 cells, Gqi5; for % Antagonism Alpha 2C: value in parentheses
T5 construct: expressed in transfected cells; host or cells: HEK 293
T5 sequence (P18825 1-462): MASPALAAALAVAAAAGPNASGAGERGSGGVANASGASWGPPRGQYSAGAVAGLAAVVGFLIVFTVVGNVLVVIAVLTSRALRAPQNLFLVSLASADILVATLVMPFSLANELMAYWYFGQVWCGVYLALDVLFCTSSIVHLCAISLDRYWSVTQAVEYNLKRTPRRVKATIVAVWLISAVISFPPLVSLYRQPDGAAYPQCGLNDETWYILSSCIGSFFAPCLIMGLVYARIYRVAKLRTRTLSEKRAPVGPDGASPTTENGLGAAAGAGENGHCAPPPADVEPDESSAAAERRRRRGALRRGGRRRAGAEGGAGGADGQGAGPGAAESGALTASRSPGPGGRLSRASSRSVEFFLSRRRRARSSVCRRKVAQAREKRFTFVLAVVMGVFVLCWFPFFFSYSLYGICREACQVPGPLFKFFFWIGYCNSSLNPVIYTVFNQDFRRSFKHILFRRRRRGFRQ
Procedure: as §1, §2

mechanical allodynia = assay: Chung rat nerve ligation model of neuropathic pain (mechanical allodynia); assay type: in vivo; conditions: co-administered IP at 100 ug/kg each, 30 minutes post drug, FIG. 1A
Procedure: The Chung model is a surgical model of neuropathic pain in rats. The pain state is generated by tight ligation of the L5 and L6 spinal nerves on one side of the rat. The surgical procedure results in a long-lasting mechanical allodynia in the affected foot. Mechanical allodynia is measured using von Frey filaments, where the investigator stimulates the plantar surface of the affected foot. Different sized filaments generate a different force. A painful response is signified by withdrawal of the paw.
Mechanical allodynia is measured at 30 minutes post drug and is reported as the percentage response to the baseline reading taken pre-drug administration.
The lack of allodynial reversal in these rats is also a measure of antagonist ability to block a response.

[3] = HEK 293 cells, G16, antagonism of norepinephrine calcium signal, read-out: IC50 Alpha 2B

SMILES	IC50 (mouse alpha2B receptor; [3])	% Antagonism Alpha 2B (mouse alpha2B receptor; HEK 293 cells, G16)	% Antagonism Alpha 1A [1]	IC50 [2]	% Antagonism Alpha 1B [2]	IC50 (human alpha 2A receptor)	% Antagonism Alpha 2A (human alpha 2A receptor)	IC50 (mouse alpha2B receptor)	% Antagonism Alpha 2C (human alpha 2C receptor)	block of allodynia reversal by 4-Cyclopent-3-enylmethyl-1,3-dihydro-imidazole-2-thione (mechanical allodynia)	IC50 ([1]; antagonism of norepinephrine calcium signal, read-out: IC50 Alpha 1A)	IC50 ([2]; antagonism of norepinephrine calcium signal, read-out: IC50 Alpha 1B)	IC50 (human alpha 2C receptor; antagonism of norepinephrine calcium signal)	IC50 [1]
Cn1c(N)c(C#N)c2c(c1=S)CNCC2 [Example 4, 3-amino-2-methyl-1-thioxo-1,2,5,6,7,8-hexahydro-2,7-naphthyridine-4-carbonitrile]	342 nM	93%	–	–	–	–	–	–	–	–	–	–	–	–
CN1CCc2c(C#N)c(N)n(C)c(=S)c2C1 [Example 5, 3-amino-2,7-dimethyl-1-thioxo-1,2,5,6,7,8-hexahydro-2,7-naphthyridine-4-carbonitrile]	–	95%	nd (64) %	> 8300 nM	0%	1990 nM	69%	10 nM	nd (25) %	completely blocks	–	–	–	–
CN1CCc2c(C#N)c(N)n(N)c(=S)c2C1 [Example 6, 2,3-diamino-4-cyano-7-methyl-(1,2,5,6,7,8-hexahydro-2,7-napthyridine-1-thione)]	204 nM	112%	19%	–	19%	–	nd (36) %	–	29%	–	> 7500 nM	> 7500 nM	1410 nM	–
CN1Cc2c(c(C#N)c(N)n(N)c2=S)CC1(C)C [Example 7, 2,3-diamino-4-cyano-6,6,7-trimethyl-(1,2,5,6,7,8-hexahydro-2,7-napthyridine-1-thione)]	–	97%	98%	> 7500 nM	16%	> 7500 nM	0%	29 nM	nd (17) %	–	–	–	–	382 nM
CCn1c(N)c(C#N)c2c(c1=S)CN(C)CC2 [Example 8, 3-Amino-2-ethyl-4-cyano-7-methyl-(1,2,5,6,7,8-hexahydro-2,7-napthyridine-1-thione)]	473 nM	95%	–	–	–	–	–	–	–	–	–	–	–	–
CN1CCc2c(C#N)c(N)n(C)c(=O)c2C1 [Example 9, 3-Amino-2-methyl-4-cyano-7-methyl-(1,2,5,6,7,8-hexahydro-2,7-napthyridine-1-ketone)]	1170 nM	88%	–	–	–	–	–	–	–	–	–	–	–	–
